Assay results from the NIST ThermoML archive (doi:10.1021/acs.jced.8b01135).

Assay: xn = mol fraction of the nth substance listed
Settings: 102 kPa, Liquid; for speed of sound: Frequency=3 MHz, Single path-length method; for mass density: Vibrating tube method; for viscosity: Concentric cylinders viscometry

CCCCCCC1CCCCC1 [hexylcyclohexane] + CCCCCCCCCCCC
Settings | mass density [kg/m3] | speed of sound [m/s] | viscosity [mPa·s]
288.15 K, x1 = 0.1009 | 757.85 | 1322.7 | –
288.15 K, x1 = 0.1998 | 763.33 | 1328.2 | –
288.15 K, x1 = 0.3001 | 768.99 | 1334.2 | –
288.15 K, x1 = 0.4001 | 774.72 | 1340.2 | –
288.15 K, x1 = 0.5004 | 780.57 | 1346.3 | –
288.15 K, x1 = 0.5996 | 786.46 | 1352.5 | –
288.15 K, x1 = 0.7005 | 792.54 | 1359.2 | –
288.15 K, x1 = 0.7996 | 798.63 | 1365.9 | –
288.15 K, x1 = 0.8997 | 804.88 | 1373 | –
288.15 K, x1 = 1 | 811.34 | 1380.4 | –
293.15 K, x1 = 0.1002 | – | – | 1.53
293.15 K, x1 = 0.1009 | 754.24 | 1303.2 | –
293.15 K, x1 = 0.1998 | 759.72 | 1308.8 | –
293.15 K, x1 = 0.201 | – | – | 1.58
293.15 K, x1 = 0.3 | – | – | 1.64
293.15 K, x1 = 0.3001 | 765.39 | 1314.7 | –
293.15 K, x1 = 0.3998 | – | – | 1.7
293.15 K, x1 = 0.4001 | 771.13 | 1320.7 | –
293.15 K, x1 = 0.5002 | – | – | 1.76
293.15 K, x1 = 0.5004 | 776.99 | 1326.9 | –
293.15 K, x1 = 0.5996 | 782.88 | 1333.2 | –
293.15 K, x1 = 0.5999 | – | – | 1.83
293.15 K, x1 = 0.6998 | – | – | 1.91
293.15 K, x1 = 0.7005 | 788.97 | 1339.8 | –
293.15 K, x1 = 0.7996 | 795.06 | 1346.5 | –
293.15 K, x1 = 0.8001 | – | – | 1.99
293.15 K, x1 = 0.8997 | 801.31 | 1353.4 | –
293.15 K, x1 = 0.8998 | – | – | 2.08
293.15 K, x1 = 1 | 807.76 | 1360.9 | 2.19
298.15 K, x1 = 0.1009 | 750.61 | 1283.8 | –
298.15 K, x1 = 0.1998 | 756.11 | 1289.4 | –
298.15 K, x1 = 0.3001 | 761.78 | 1295.3 | –
298.15 K, x1 = 0.4001 | 767.53 | 1301.3 | –
298.15 K, x1 = 0.5004 | 773.39 | 1307.5 | –
298.15 K, x1 = 0.5996 | 779.29 | 1313.8 | –
298.15 K, x1 = 0.7005 | 785.38 | 1320.4 | –
298.15 K, x1 = 0.7996 | 791.48 | 1327.1 | –
298.15 K, x1 = 0.8997 | 797.74 | 1334 | –
298.15 K, x1 = 1 | 804.19 | 1341.4 | –
303.15 K, x1 = 0.1002 | – | – | 1.3
303.15 K, x1 = 0.1009 | 746.99 | 1264.6 | –
303.15 K, x1 = 0.1998 | 752.5 | 1270.2 | –
303.15 K, x1 = 0.201 | – | – | 1.34
303.15 K, x1 = 0.3 | – | – | 1.38
303.15 K, x1 = 0.3001 | 758.17 | 1276.1 | –
303.15 K, x1 = 0.3998 | – | – | 1.43
303.15 K, x1 = 0.4001 | 763.92 | 1282.1 | –
303.15 K, x1 = 0.5002 | – | – | 1.48
303.15 K, x1 = 0.5004 | 769.79 | 1288.3 | –
303.15 K, x1 = 0.5996 | 775.7 | 1294.6 | –
303.15 K, x1 = 0.5999 | – | – | 1.54
303.15 K, x1 = 0.6998 | – | – | 1.6
303.15 K, x1 = 0.7005 | 781.79 | 1301.2 | –
303.15 K, x1 = 0.7996 | 787.89 | 1307.8 | –
303.15 K, x1 = 0.8001 | – | – | 1.66
303.15 K, x1 = 0.8997 | 794.16 | 1314.7 | –
303.15 K, x1 = 0.8998 | – | – | 1.74
303.15 K, x1 = 1 | 800.61 | 1322.1 | 1.79
313.15 K, x1 = 0.1002 | – | – | 1.11
313.15 K, x1 = 0.1009 | 739.73 | 1226.8 | –
313.15 K, x1 = 0.1998 | 745.25 | 1232.4 | –
313.15 K, x1 = 0.201 | – | – | 1.14
313.15 K, x1 = 0.3 | – | – | 1.17
313.15 K, x1 = 0.3001 | 750.94 | 1238.3 | –
313.15 K, x1 = 0.3998 | – | – | 1.21
313.15 K, x1 = 0.4001 | 756.7 | 1244.3 | –
313.15 K, x1 = 0.5002 | – | – | 1.25
313.15 K, x1 = 0.5004 | 762.59 | 1250.5 | –
313.15 K, x1 = 0.5996 | 768.5 | 1256.8 | –
313.15 K, x1 = 0.5999 | – | – | 1.3
313.15 K, x1 = 0.6998 | – | – | 1.34
313.15 K, x1 = 0.7005 | 774.6 | 1263.4 | –
313.15 K, x1 = 0.7996 | 780.72 | 1270.1 | –
313.15 K, x1 = 0.8001 | – | – | 1.4
313.15 K, x1 = 0.8997 | 786.99 | 1276.9 | –
313.15 K, x1 = 0.8998 | – | – | 1.46
313.15 K, x1 = 1 | 793.43 | 1284.2 | 1.52
323.15 K, x1 = 0.1002 | – | – | 0.958
323.15 K, x1 = 0.1009 | 732.44 | 1189.7 | –
323.15 K, x1 = 0.1998 | 737.97 | 1195.4 | –
323.15 K, x1 = 0.201 | – | – | 0.986
323.15 K, x1 = 0.3 | – | – | 1.01
323.15 K, x1 = 0.3001 | 743.68 | 1201.3 | –
323.15 K, x1 = 0.3998 | – | – | 1.05
323.15 K, x1 = 0.4001 | 749.46 | 1207.4 | –
323.15 K, x1 = 0.5002 | – | – | 1.08
323.15 K, x1 = 0.5004 | 755.35 | 1213.6 | –
323.15 K, x1 = 0.5996 | 761.28 | 1219.8 | –
323.15 K, x1 = 0.5999 | – | – | 1.12
323.15 K, x1 = 0.6998 | – | – | 1.15
323.15 K, x1 = 0.7005 | 767.39 | 1226.4 | –
323.15 K, x1 = 0.7996 | 773.52 | 1233.1 | –
323.15 K, x1 = 0.8001 | – | – | 1.2
323.15 K, x1 = 0.8997 | 779.8 | 1239.8 | –
323.15 K, x1 = 0.8998 | – | – | 1.25
323.15 K, x1 = 1 | 786.25 | 1247.1 | 1.3
333.15 K, x1 = 0.1002 | – | – | 0.833
333.15 K, x1 = 0.1009 | 725.11 | 1153.6 | –
333.15 K, x1 = 0.1998 | 730.66 | 1159.3 | –
333.15 K, x1 = 0.201 | – | – | 0.855
333.15 K, x1 = 0.3 | – | – | 0.88
333.15 K, x1 = 0.3001 | 736.38 | 1165.3 | –
333.15 K, x1 = 0.3998 | – | – | 0.906
333.15 K, x1 = 0.4001 | 742.18 | 1171.3 | –
333.15 K, x1 = 0.5002 | – | – | 0.935
333.15 K, x1 = 0.5004 | 748.09 | 1177.6 | –
333.15 K, x1 = 0.5996 | 754.02 | 1183.9 | –
333.15 K, x1 = 0.5999 | – | – | 0.966
333.15 K, x1 = 0.6998 | – | – | 1
333.15 K, x1 = 0.7005 | 760.16 | 1190.5 | –
333.15 K, x1 = 0.7996 | 766.29 | 1197.1 | –
333.15 K, x1 = 0.8001 | – | – | 1.04
333.15 K, x1 = 0.8997 | 772.58 | 1203.6 | –
333.15 K, x1 = 0.8998 | – | – | 1.07
333.15 K, x1 = 1 | 779.05 | 1211 | 1.12
